# In patent publication US20210386791A1, “METHODS OF CELLULAR REPROGRAMMING” (TissueTech, Inc., priority 2018, published 2021):
# Experiments:
# Assay type in all cases: cell-based
# [1] = tested on: human corneal myofibroblasts; test: Reversal of TGFβ1-induced human corneal myofibroblasts on immobilized HC-HA/PTX3; details: day 4 and day 7
# Procedure: HCF were cultured in DMEM+10% FBS until 70% confluence. The cells were serum-starved for 1 day and treated with 10 ng/ml TGFβ1 for 3 days to induce myofibroblasts.
# To reverse fibroblasts or myofibroblasts into keratocytes, fibroblasts or myofibroblasts were cultured on immobilized HC-HA/PTX3 in DMEM+10% FBS for 3 days using the samples from the cells on plastic and HA as the controls. Some of the cell cultures were extended to up to 7 days of culture to monitor the expression of α-SMA formation. […]
# The samples of human corneal fibroblasts, myofibroblasts and corneal keratocytes were air-dried and fixed in 4% formaldehyde, pH 7.0, for 15 min at room temperature, rehydrated in PBS, incubated with 0.2% Triton X-100 for 15 min, and rinsed 3 times with PBS for 5 min each. […] The samples were then counterstained with Hoechst 33342 and analyzed in Zeiss LSM 700 confocal microscope (Thornhood, N.Y.). […]
# Cell lysates were prepared in RIPA buffer and resolved on 4-15% (w/v) gradient acrylamide gels under denaturing and reducing conditions for Western blotting. […] Immunoreactive proteins were detected with Western Lighting Chemiluminescence (PerkinElmer, Waltham, Mass.).
# [2] = tested on: human corneal fibroblasts (HCF); test: Reversal of HCF to keratocytes on immobilized HC-HA/PTX3 with or without SB431542 or AMD3100; details: day 1 up to 7 days
# Procedure: A total of 86 human corneas from individuals aged 18-76 years and maintained at 4° C. in Optisol (Chiron Vision, Irvine, Calif.) for less than 7 days after death were obtained from the Florida Lions Eye Bank (Miami, Fla.) and handled according to the declaration of Helsinki. HCF were isolated and cultured. Briefly, the sheets of the epithelium and the endothelium were removed from corneas, the stroma sections were cut into cubes of approximately 1 mm3, incubated in 2 mg/ml collagenase for 16 h at 37° C., and then placed in a culture medium consisting of DMEM supplemented with 10% fetal bovine serum containing […]. The culture medium was refreshed twice a week. The cells cultured to passage 3 were used for all experiments. To reverse fibroblasts or myofibroblasts into keratocytes, fibroblasts or myofibroblasts were cultured on immobilized HC-HA/PTX3 in DMEM+10% FBS for 3 days using the samples from the cells on plastic and HA as the controls. Some of the cell cultures were extended to up to 7 days of culture to monitor the expression of α-SMA formation. Total RNAs were extracted using RNeasy Mini Kit (Qiagen) and reverse-transcribed using High Capacity Reverse Transcription Kit (Applied Biosystems). cDNA was amplified by real-time RT-PCR using specific primer-probe mixtures and DNA polymerase in Quant Studio 5 Real-time PCR System (Applied Biosystems). Real-time RT-PCR profile consisted of 10 min of initial activation at 95° C., followed by 40 cycles of 15 s denaturation at 95° C., and 1 min annealing and extension at 60° C. The genuine identity of each PCR product was confirmed by the size determination using 2% agarose gels followed by ethidium bromide staining together with PCR marker according to EC3 Imaging System (BioImaging System, Upland, Calif.). The samples of human corneal fibroblasts, myofibroblasts and corneal keratocytes were air-dried and fixed in 4% formaldehyde, pH 7.0, for 15 min at room temperature, rehydrated in PBS, incubated with 0.2% Triton X-100 for 15 min, and rinsed 3 times with PBS for 5 min each. […] After three washes with PBS, they were incubated with corresponding Alexa-Fluor-conjugated secondary IgG (all 1:100 dilution) for 60 min. The samples were then counterstained with Hoechst 33342 and analyzed in Zeiss LSM 700 confocal microscope (Thornhood, N.Y.). Corresponding mouse and rabbit sera were used as negative controls for primary monoclonal and polyclonal antibodies, respectively. Cell lysates were prepared in RIPA buffer and resolved on 4-15% (w/v) gradient acrylamide gels under denaturing and reducing conditions for Western blotting. The protein extracts were transferred to the nitrocellulose membrane, which was then blocked with 5% (w/v) fat-free milk in TBST [50 mM Tris-HCl, pH 7.5, 150 mM NaCl, 0.05% (v/v) Tween-20], followed by sequential incubation with the specific primary antibody against keratocan and its respective horseradish peroxidase (HRP)-conjugated secondary antibody using β-actin as the loading control. Immunoreactive proteins were detected with Western Lighting Chemiluminescence (PerkinElmer, Waltham, Mass.).
# [3] = tested on: human corneal fibroblasts (HCF); test: Timing course analysis of SDF1/CXCR4 and BMP signaling in HCF; details: time course
substance,measurement,setting,value
hyaluronic acid [HA],staining of α-SMA,[1],retained their characteristic staining of α-SMA
same,aggregation of HCF,[2],formed some aggregates
same,time of promoted CXCR4 mRNA expression,[3],not HA
same,time to aggregation in HCF,[3],not HA
